Data reported in patent US20130310256A1, “HERBICIDAL COMPOSITIONS COMPRISING 4-AMINO-3-CHLORO-5-FLUORO-6-(4-CHLORO-2-FLUORO-3-METHOXYPHENYL) PYRIDINE-2-CARBOXYLIC ACID OR A DERIVATIVE THEREOF AND VLCFA AND LIPID SYNTHESIS INHIBITING HERBICIDES” (DOW AGROSCIENCES LLC, priority 2008, published 2013).

Key:
IPOHE = assay: Example IV: pre-emergence soil-applied weed control, greenhouse; type: in vivo, Ipomoea hederacea Jacq. (ivyleaf morningglory)
Source text: (§1) Seeds or nutlets of the desired test plant species were planted in a soil matrix prepared by mixing a loam soil (32 percent silt, 23 percent clay, and 45 percent sand, with a pH of about 6.5 and an organic matter content of about 1.9 percent) and calcareous grit in an 80 to 20 ratio. The soil matrix was contained in plastic pots with a volume of 1 quart and a surface area of 83.6 square centimeters (cm^2).
(§2) Treatments consisted of the benzyl ester of 4-amino-3-chloro-5-fluoro-6-(4-chloro-2-fluoro-3-methoxy-phenyl)pyridine-2-carboxylic acid (compound A) formulated as an SC (suspension concentrate) and various herbicidal components alone and in combination. Forms of compound A were applied on an acid equivalent basis.
(§3) Other herbicidal components were applied on an active ingredient basis and included very long chain fatty acid (VLCFA) synthesis-inhibiting and fatty acid/lipid synthesis-inhibiting herbicides alachlor (technical grade material), dimethenamid-P formulated as Outlook®, and S-metolachlor formulated as Dual® II Magnum.
(§4) Treatment requirements were calculated based upon the rates being tested, the concentration of active ingredient or acid equivalent in the formulation, and a 12 mL application volume at a rate of 187 L/ha.
(§5) For treatments comprised of formulated compounds, measured amounts of compounds were placed individually in 25 mL glass vials and diluted in a volume of 1.25% (v/v) Agri-Dex® crop oil concentrate (COC) to obtain 12× stock solutions. […] Application solutions were prepared by adding an appropriate amount of each stock solution (e.g., 1 mL) and diluted to the appropriate final concentrations with the addition of 10 mL of an aqueous mixture of 1.25% (v/v) COC so that the final spray solutions contained 1.25% (v/v) COC.
(§6) For treatments comprised of technical compounds, weighed amounts can be placed individually in 25 mL glass vials and dissolved in a volume of 97:3 (v/v) acetone/DMSO to obtain 12× stock solutions. […] Application solutions can be prepared by adding an appropriate amount of each stock solution (e.g., 1 mL) and diluted to the appropriate final concentrations with the addition of 10 mL of an aqueous mixture of 1.5% (v/v) COC so that the final spray solutions contain 1.25% (v/v) COC. When technical materials are used, the concentrated stock solutions can be added to the spray solutions so that the final acetone and DMSO concentrations of the application solutions are 16.2% and 0.5%, respectively.
For treatments comprised of formulated and technical compounds, weighed amounts of the technical materials were placed individually in 25 mL glass vials and dissolved in a volume of 97:3 (v/v) acetone/DMSO to obtain 12× stock solutions, and measured amounts of the formulated compounds were placed individually in 25 mL glass vials and diluted in a volume of 1.5% (v/v) COC or water to obtain 12× stock solutions. […] Application solutions were prepared by adding an appropriate amount of each stock solution (e.g., 1 mL) and diluted to the appropriate final concentrations with the addition of an appropriate amount of an aqueous mixture of 1.5% (v/v) COC so that the final spray solutions contained 1.25% (v/v) COC. As required, additional water and/or 97:3 (v/v) acetone/DMSO was added to individual application solutions so that the final acetone and DMSO concentrations of the application solutions being compared were 8.1% and 0.25%, respectively.
All stock solutions and applications solutions were visually inspected for compound compatibility prior to application. Spray solutions were applied to the soil with an overhead Mandel track sprayer equipped with a 8002E nozzles calibrated to deliver 187 L/ha over an application area of 0.503 m^2 at a spray height of 18 inches (46 cm) above average pot height. Control pots were sprayed in the same manner with the solvent blank.
The treated and control pots were placed in a greenhouse and top watered as needed. […]

CIRAR = assay: Example III: post-emergence foliar-applied weed control in cereal crops, greenhouse; type: in vivo, Cirsium arvense (L.) Scop.; details: 21 DAA
Procedure: (§7) Seeds of the desired test plant species were planted in Sun Gro MetroMix® 306 planting mixture, which typically has a pH of 6.0 to 6.8 and an organic matter content of about 30 percent, in plastic pots with a surface area of 103.2 square centimeters (cm^2). When required to ensure good germination and healthy plants, a fungicide treatment and/or other chemical or physical treatment was applied. The plants were grown for 7-36 days in a greenhouse with an approximate 14 hour photoperiod which was maintained at about 18° C. during the day and 17° C. during the night. Nutrients and water were added on a regular basis and supplemental lighting was provided with overhead metal halide 1000-Watt lamps as necessary. The plants were employed for testing when they reached the second or third true leaf stage.
(§8) Treatments consisted of the benzyl ester of 4-amino-3-chloro-5-fluoro-6-(4-chloro-2-fluoro-3-methoxy-phenyl)pyridine-2-carboxylic acid (Compound A), formulated as an SC (suspension concentrate), and a second cereal herbicide alone and in combination.
(§9) Measured aliquots of the benzyl ester of 4-amino-3-chloro-5-fluoro-6-(4-chloro-2-fluoro-3-methoxy-phenyl)pyridine-2-carboxylic acid (Compound A) were placed in 25 milliliter (mL) glass vials and diluted in a volume of 1.25% (v/v) Agri-dex crop oil concentrated to obtain stock solutions. Compound requirements are based upon a 12 mL application volume at a rate of 187 liters per hectare (L/ha). Spray solutions of the second cereal herbicide and experimental compound mixtures were prepared by adding the stock solutions to the appropriate amount of dilution solution to form 12 mL spray solution with active ingredients in two- and three-way combinations. Formulated compounds were applied to the plant material with an overhead Mandel track sprayer equipped with an 8002E nozzle calibrated to deliver 187 L/ha over an application area of 0.503 square meters (m^2) at a spray height of 18 inches (46 cm) above average plant canopy. Control plants were sprayed in the same manner with the solvent blank.
(§10) The treated plants and control plants were placed in a greenhouse as described above and watered by sub-irrigation to prevent wash-off of the test compounds. After 20-22 days, the condition of the test plants as compared with that of the control plants was determined visually and scored on a scale of 0 to 100 percent where 0 corresponds to no injury and 100 corresponds to complete kill.
(§11) Colby's equation was used to determine the herbicidal effects expected from the mixtures (Colby, S. R. 1967. Calculation of the synergistic and antagonistic response of herbicide combinations. Weeds 15:20-22.).

KCHSC = assay: as above; type: in vivo, Kochia scoparia (L.) Schrad.; details: 21 DAA
Procedure: as §7, §8, §9, §10, §11

CYPES = assay: Example I: postemergence foliar-applied weed control, greenhouse; type: in vivo, Cyperus esculentus L. (yellow nutsedge)
XANST = assay: Example IV: pre-emergence soil-applied weed control, greenhouse; type: in vivo, Xanthium strumarium L. (common cocklebur); details: 32 gae/ha, 29 DAA
Source text: as §1, §2, §3, §4, §5
as §6, with “When technical materials are used, the concentrated stock solutions can be added to the spray solutions so that the final acetone and DMSO concentrations of the application solutions are 16.2% and 0.5%, respectively.” left out
For treatments comprised of formulated and technical compounds, weighed amounts of the technical materials were placed individually in 25 mL glass vials and dissolved in a volume of 97:3 (v/v) acetone/DMSO to obtain 12× stock solutions, and measured amounts of the formulated compounds were placed individually in 25 mL glass vials and diluted in a volume of 1.5% (v/v) COC or water to obtain 12× stock solutions. […]

## COc1c(Cl)ccc(-c2nc(C(=O)OCc3ccccc3)c(Cl)c(N)c2F)c1F [Compound A Benzyl Ester, benzyl ester of 4-amino-3-chloro-5-fluoro-6-(4-chloro-2-fluoro-3-methoxy-phenyl)pyridine-2-carboxylic acid]
IPOHE; 16 gae/ha, 28 DAA
  Visual Weed Control IPOHE Obs: 13%
IPOHE; 32 gae/ha, 27 DAA
  Visual Weed Control IPOHE Obs: 28%
IPOHE; 32 gae/ha, 28 DAA
  Visual Weed Control IPOHE Obs: 23%
CIRAR; 2.5 gai/ha
  Visual Weed Control CIRAR Obs: 48%
CIRAR; 5 gai/ha
  Visual Weed Control CIRAR Obs: 39%
CIRAR; 10 gai/ha
  Visual Weed Control CIRAR Obs: 60%
KCHSC; 2.5 gai/ha
  Visual Weed Control KCHSC Obs: 20%
KCHSC; 5 gai/ha
  Visual Weed Control KCHSC Obs: 41%
KCHSC; 10 gai/ha
  Visual Weed Control KCHSC Obs: 62%
CYPES; 8 gae/ha
  Visual Weed Control (%) - 20 DAA CYPES Obs: 0%
  Visual Weed Control (%) - 21 DAA CYPES Obs: 85%
CYPES; 16 gae/ha
  Visual Weed Control (%) - 20 DAA CYPES Obs: 75%
XANST
  Visual Weed Control XANST Obs: 5%
